From patent publication US20130316958A1 (University of Southern California, priority 2010, published 2013)

Key:
[1] = molecular target: T1, Atg3-LC3 interaction (Homo sapiens, UniProt Q9NT62); assay: Competition of vFLIP with LC3 for Atg3 binding (GST pulldown); settings: increasing amount of Flag-vFLIP, HEK293T
T1 construct: expressed in transfected cells; host or cells: HEK293T
Procedure: Due to identical Atg3 binding patterns seen in vFLIP and LC3, the ability of vFLIP to directly compete with LC3 for Atg3 binding was tested. HEK293T cells were transfected with GST-Atg3 and GFP-LC3 along with increasing amount of Flag-vFLIP. At 48 hr post-transfection, GST pulldown was performed as described above, followed by immunoblotting with αGFP or αFlag.

[2] = system: TREX-BCBL cells; assay: vFLIP expression in KSHV-infected BCBL1 cells: autophagy, growth suppression and death; format: cell-based
Procedure: To investigate whether vFLIP expression suppresses autophagy in virus-infected cells, a KSHV-infected BCBL1 cell line was constructed (TREX-BCBL) in which a Flag-tagged KSHV-vFLIP gene was integrated into the chromosomal DNA under the control of a tetracycline-inducible promoter. (Nakamura et al. (2003) J. Virol. 77:4205-4220). At 12-16 hr post-transfection with GFP-LC3, TREX-BCBL-Vector and TREX-BCBL-vFLIP cells were treated with Doxycycline for 24 hr, followed by incubation with 2 μM rapamycin for an additional 12 hr. The detection of GFP-LC3 and autophagy levels was performed as described above, vFLIP expression was detected by IB with anti-Flag, and autophagosomes were visualized by scanning EM (scale bar=50 nm). Treatment of these cells with doxycycline strongly activated Flag-vFLIP expression.
The effect of vFLIP on autophagy was tested in a KSHV-infected BCBL1 cell line. TREX-BCBL-Vector and TREX-BCBL-vFLIP cells were treated with rapamycin or left untreated for 6 days in the presence of doxycycline and subjected to scanning EM, to examine the morphologies of over 100 dead cells and quantify cell death for apoptosis and autophagic death, or subjected to PI staining and cell cycle analysis.
All siRNAs were produced by Dharmacon Research. siRNAs specific for human Beclin1 (5′[…]3′) and a nonspecific scrambled control siRNA were transfected using DharmaFect reagent (Dharmacon) according to the manufacturer's instructions. At 48-72 hr post-transfection, cells were analyzed for autophagy. Trypan blue staining and a Beckman Coulter Z2 Particle Count and Size analyzer were used to determine cell death (as a percentage) at day 5.

[3] = system: HCT116, HaCat, and MEF cells; assay: GFP-LC3 autophagy with KSHV vFLIP in multiple cell types; format: cell-based; settings: 2 μM rapamycin 3 hr
Procedure: During autophagy, an LC3 precursor (LC3-I) undergoes cleavage and lipidation to yield its processed form (LC3-II) (Mizushima et al. (2008) Nature 451:1069-1075). Immunoblotting was performed with an antibody against LC3 to further measure autophagic activity. NIH3T3-Vector, NIH3T3-KSHV-vFLIP, and NIH3T3-MCV-159L cells were treated with Hank's solution for 4 hr. Polypeptides were resolved by SDS-polyacrylamide gel electrophoresis (PAGE) and transferred to a PVDF membrane (Bio-Rad). […] The proteins were visualized by a chemiluminescence reagent (Pierce) and detected by a Fuji Phosphor Imager. A large portion of LC3-I was processed to LC3-II in NIH3T3-vector cells under starvation conditions, while little or no processed LC3-II was detected in NIH3T3-KSHV-vFLIP, NIH3T3-MCV-159L, NIH3T3-HVS-vFLIP, and NIH3T3-cFLIPs cells. Finally, the ability of FLIP to block autophagy in multiple cell types was evaluated. At 12-16 hr post-transfection with GFP-LC3, HCT116, HaCat, and MEF cells containing vector or KSHV vFLIP were treated with 2 μM rapamycin for 3 hr. Subsequently, GFP-LC3 was detected using an inverted fluorescence microscope and the autophagy levels quantified as means (±SD) of the results from three independent experiments.

T1 sequence (Q9NT62 whole entry): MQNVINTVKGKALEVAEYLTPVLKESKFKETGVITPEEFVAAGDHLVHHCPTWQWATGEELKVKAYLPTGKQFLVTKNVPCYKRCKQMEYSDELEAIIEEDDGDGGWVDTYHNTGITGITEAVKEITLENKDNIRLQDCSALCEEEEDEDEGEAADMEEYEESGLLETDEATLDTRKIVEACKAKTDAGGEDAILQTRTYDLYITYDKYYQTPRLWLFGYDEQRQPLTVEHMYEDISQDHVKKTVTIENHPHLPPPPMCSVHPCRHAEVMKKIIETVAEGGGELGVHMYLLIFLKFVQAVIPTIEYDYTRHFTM

KSHV vFLIP: viral FLICE-like inhibitor protein of Kaposi's sarcoma-associated herpesvirus, expressed in cells
effect on Atg3-LC3 interaction [1]: marked decrease of Atg3-LC3 interaction | block of rapamycin-induced autophagy and cell death ([2]; TREX-BCBL-vFLIP cells): readily blocked rapamycin-induced autophagy and cell death | inhibition of peptide-induced autophagy and cell death ([2]; TREX-BCBL-vFLIP cells): minimal | suppression of rapamycin-induced autophagy in TREX-BCBL cells ([2]; doxycycline 24 hr, 2 μM rapamycin 12 hr): extensively suppressed rapamycin-induced autophagy | block of rapamycin- or zVAD-induced growth suppression and autophagic death ([2]; ectopic expression in BCBL1 cells): almost completely blocked | block of autophagy in multiple cell types [3]: efficiently blocked autophagy in a number of cell types
